US10519211B2, “Compounds as peptidic GLP1/glucagon/GIP receptor agonists” (SANOFI, priority 2016, dated 2019)

Experiments:
[1] = target: T1, human GIP receptor (hGIP-R) (Homo sapiens, UniProt P48546); assay: cAMP response (HTRF) of HEK-293 cells stably expressing human GIP receptor; type: cell-based; details: Table 8; cAMP formation
T1 construct: expressed in transfected cells; host or cells: HEK-293
T1 sequence (P48546 22-466): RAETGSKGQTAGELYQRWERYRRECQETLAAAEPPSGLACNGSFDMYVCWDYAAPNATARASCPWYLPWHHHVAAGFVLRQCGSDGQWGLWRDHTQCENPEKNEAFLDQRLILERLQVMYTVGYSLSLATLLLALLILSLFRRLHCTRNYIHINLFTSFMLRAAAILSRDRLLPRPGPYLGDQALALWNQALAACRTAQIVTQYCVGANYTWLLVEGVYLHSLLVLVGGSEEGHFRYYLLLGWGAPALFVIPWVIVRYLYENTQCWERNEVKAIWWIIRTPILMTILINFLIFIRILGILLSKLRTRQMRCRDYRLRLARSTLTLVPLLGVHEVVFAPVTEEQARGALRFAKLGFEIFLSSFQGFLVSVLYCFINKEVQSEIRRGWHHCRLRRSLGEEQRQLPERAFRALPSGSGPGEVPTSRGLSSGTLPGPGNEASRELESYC
Description: cAMP content of cells was determined using a kit from Cisbio Corp. (cat. no. 62AM4PEJ) based on HTRF (Homogenous Time Resolved Fluorescence). For preparation, cells were split into T175 culture flasks and grown overnight to near confluency in medium (DMEM/10% FBS). Medium was then removed and cells washed with PBS lacking calcium and magnesium, followed by proteinase treatment with accutase (Sigma-Aldrich cat. no. A6964). Detached cells were washed and resuspended in assay buffer (1×HBSS; 20 mM HEPES, 0.1% BSA, 2 mM IBMX) and cellular density determined. They were then diluted to 400000 cells/ml and 25 μl-aliquots dispensed into the wells of 96-well plates. For measurement, 25 μl of test compound in assay buffer was added to the wells, followed by incubation for 30 minutes at room temperature.
Potencies of peptidic compounds at the GLP-1, glucagon and GIP receptors were determined by exposing cells expressing human glucagon receptor (hGlucagon R), human GIP receptor (hGIP-R) or human GLP-1 receptor (hGLP-1 R) to the listed compounds at increasing concentrations and measuring the formed cAMP as described in Methods.

[2] = Chemical stability assessment (UPLC-UV, relative purity loss); type: physicochemical; details: 1 mg/ml, 25 mM acetate buffer pH 4.5 with m-cresol (buffer system A)
In short: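 Peptide at 1 mg/mL (purity-corrected) in 25 mM acetate pH 4.5 with methionine, m-cresol and glycerol, sterile-filtered, stored 28 days at 40° C. Purity measured by UPLC-UV as peptide peak area fraction at start and after storage; value is relative percent purity loss.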

[3] = Dynamic light scattering (DLS), hydrodynamic radius as surrogate for interaction parameter kD; type: physicochemical
In short: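 Rh and diffusion constant measured in triplicate at 1 and 5 mg/ml peptide in 25 mM acetate pH4.5 with methionine, m-cresol and glycerol, at 25°C, 830 nm, 158°. Rh5<Rh1 or D5>D1 taken as kD>0, indicating repulsive interactions.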

[4] = Thioflavin T (ThT) assay for physical stability (fibrillation); type: physicochemical; details: 3 mg/ml, 100 mM acetate pH 4.5 with m-cresol, shaking at 37° C.
In short: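 Peptide at 3 mg/ml with 100 μM ThT in 100 mM acetate pH 4.5 with m-cresol, stressed at 37° C by cycles of 10 s shaking at 960 rpm and 50 s rest. Fluorescence read every 20 minutes, eight replicates; lag time in hours.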

EC50 [1]	Chemical stability [relative purity loss 28 days 40° C.] (%) at pH 4.5 [2]	Delta Rh [nm] = Rh5 − Rh1 ([3]; DLS buffer system A pH 4.5)	Rh1 [nm] c= 1 mg/ml ([3]; hydrodynamic radius, 1 mg/ml, DLS buffer system A pH 4.5, DLS method C, 25° C.)	Rh5 [nm] c = 5 mg/ml ([3]; hydrodynamic radius, 5 mg/ml, DLS buffer system A pH 4.5, DLS method C, 25° C.)	Lag time before increase [4]	Structure (SMILES)
7.9 pM	6.9%	−0.5 nm	2.3 nm	1.8 nm	>45 h	CCCCCCCCCCCCCCCC(=O)N[C@@H](CCC(=O)N[C@@H](CCC(=O)NCCCC[C@H](NC(=O)[C@H](CC(C)C)NC(=O)[C@H](CCCCN)NC(=O)[C@H](CO)NC(=O)[C@H](CC(C)C)NC(=O)[C@H](CC(=O)O)NC(=O)[C@H](CO)NC(=O)[C@@H](NC(=O)[C@H](Cc1ccccc1)NC(=O)[C@@H](NC(=O)CNC(=O)[C@H](CCC(N)=O)NC(=O)C(C)(C)NC(=O)[C@@H](N)Cc1c[nH]cn1)[C@@H](C)O)[C@@H](C)O)C(=O)N[C@@H](CCC(=O)O)C(=O)N[C@@H](CCCCN)C(=O)N[C@@H](CCC(N)=O)C(=O)N[C@@H](CCCNC(=N)N)C(=O)N[C@@H](CCC(N)=O)C(=O)NC(C)(C)C(=O)N[C@@H](CCC(=O)O)C(=O)N[C@@H](Cc1ccccc1)C(=O)N[C@H](C(=O)N[C@@H](CCC(=O)O)C(=O)N[C@@H](Cc1c[nH]c2ccccc12)C(=O)N[C@@H](CC(C)C)C(=O)N[C@@H](CCCCN)C(=O)N[C@@H](C)C(=O)NCC(=O)NCC(=O)N1CCC[C@H]1C(=O)N1CCC[C@H]1C(=O)N[C@@H](CO)C(=O)NC(C)(C)C(=O)N[C@@H](CCCCN)C(=O)N1CCC[C@H]1C(=O)N1CCC[C@H]1C(=O)N1CCC[C@H]1C(=O)N[C@@H](CCCCN)C(N)=O)[C@@H](C)CC)C(=O)O)C(=O)O [SEQ ID NO: 6, H-Aib-Q-G-T-F-T-S-D-L-S-K-L-K[gGlu-gGlu-Palm]-E-K-Q-R-Q-Aib-E-F-I-E-W-L-K-A-G-G-P-P-S-Aib-K-P-P-P-K-NH2]
5.6 pM	7.6%				>45 h	CCCCCCCCCCCCCCCC(=O)N[C@@H](CCC(=O)N[C@@H](CCC(=O)NCCCC[C@H](NC(=O)[C@H](CC(C)C)NC(=O)[C@H](CCCCN)NC(=O)[C@H](CO)NC(=O)[C@H](CC(C)C)NC(=O)[C@H](CC(=O)O)NC(=O)[C@H](CO)NC(=O)[C@@H](NC(=O)[C@H](Cc1ccccc1)NC(=O)[C@@H](NC(=O)CNC(=O)[C@H](CCC(N)=O)NC(=O)C(C)(C)NC(=O)[C@@H](N)Cc1c[nH]cn1)[C@@H](C)O)[C@@H](C)O)C(=O)N[C@@H](CCC(=O)O)C(=O)N[C@@H](CCC(=O)O)C(=O)N[C@@H](CCC(N)=O)C(=O)N[C@@H](CCCNC(=N)N)C(=O)N[C@@H](CCC(N)=O)C(=O)NC(C)(C)C(=O)N[C@@H](CCC(=O)O)C(=O)N[C@@H](Cc1ccccc1)C(=O)N[C@H](C(=O)N[C@@H](CCC(=O)O)C(=O)N[C@@H](Cc1c[nH]c2ccccc12)C(=O)N[C@@H](CC(C)C)C(=O)N[C@@H](CCCCN)C(=O)N[C@@H](C)C(=O)NCC(=O)NCC(=O)N[C@@H](Cc1c[nH]cn1)C(=O)N1CCC[C@H]1C(=O)N[C@@H](CO)C(=O)NC(C)(C)C(=O)N[C@@H](CCCCN)C(=O)N1CCC[C@H]1C(=O)N1CCC[C@H]1C(=O)N1CCC[C@H]1C(=O)N[C@@H](CCCCN)C(N)=O)[C@@H](C)CC)C(=O)O)C(=O)O [SEQ ID NO: 8, H-Aib-Q-G-T-F-T-S-D-L-S-K-L-K[gGlu-gGlu-Palm]-E-E-Q-R-Q-Aib-E-F-I-E-W-L-K-A-G-G-H-P-S-Aib-K-P-P-P-K-NH2]
